Data on eleven compounds can be found in EP1489910B1 (priority 2002, dated 2003).

In test [1] the test system is cucumber mosaic virus. It counts as in vivo, Cucumber mosaic virus (CMV).
Test [2] deals with influenza A2 (Japan 305). On the set-up: dose or concentration left out as unconfirmed. The conditions noted are these: in-vitro; 1/4 of its estimated maximum tolerated concentration; cited from earlier work.
Test [3] deals with CMV. The conditions noted are these: plants infected with CMV; one range printed for CMV and ToMV; cited from earlier work.
Test [4] relates to ToMV. The conditions noted are these: plants infected with ToMV; one range printed for CMV and ToMV; cited from earlier work.
For test [5], the system named is HSV. The settings on record: legend not given; cited from earlier work.
Test [6] concerns CLSV. The settings on record: susceptible virus CLSV; cited from earlier work.
In test [7] the test system is PVX. The settings on record: susceptible virus PVX; cited from earlier work.
The subject of test [8] is herpes viruses. The conditions noted are these: in-vitro; cited from earlier work.
For test [9], the system named is measles. The settings on record: in-vitro; cited from earlier work.
In test [10] the test system is HSVlesions. The settings on record: HSVlesions in humans; cited from earlier work.
Test [11] has as its system HSV Keratitis. The settings on record: HSV Keratitis in rabbits; cited from earlier work.
Test [12] relates to Vaccinia. The settings on record: legend not given; cited from earlier work.
For test [13], the system named is adenovirus. The settings on record: no symbol given; cited from earlier work.
Test [14] deals with VSV. The settings on record: legend not given; cited from earlier work.
Test [15] has as its system pseudorabies virus (Suid herpes virus 1, SHV-1). The conditions noted are these: cited from earlier work.
[16] abbreviates: 1000-ppm 2-Thiouracil as control.

Where “and” joins values, the source holds several entries; their conditions need not be identical. Identical values can stand only once. Like-named read-outs stand apart in the source and are kept apart here.

On to `O=c1cc[nH]c(=S)[nH]1` [2-Thiouracil], for which, in test [1] (setting [16]), the “Average No of lesions Control” value is 1.9 and 1.7 and 1.1; the “No of lesions on Control” value was 19 and 17 and 11.

Regarding `NC12CC3CC(CC(C3)C1)C2` [Amantadine], in test [1] (1000-ppm Amantadine as control), the “Average No of lesions Control” value was 4.5 and 4.0 and 4.8; the “No of lesions on Control” value is 45 and 40 and 48. Further, the “inhibition of influenza A2 (Japan 305)” value in test [2] is 98%.

Turning to `O=C1NCCCN1CN1CCOCC1` [DD13, 1-Morpholino methyl-tetrahydro-2-(1H)-pyrimidinone], the “protective effect in % plants infected” value in [3] and in [4] was 97-100% throughout.

As to `CC1(C)[C@@H](O)CC[C@]2(C)[C@H]3C(=O)C=C4[C@@H]5C[C@@](C)(C(=O)O)CC[C@]5(C)CC[C@@]4(C)[C@]3(C)CC[C@@H]12` [Glycyrrhetinic acid], in [5], the Virucidal result is on record as “+HSV only”.

Turning to `CC1(C)[C@@H](O[C@H]2O[C@H](C(=O)O)[C@@H](O)[C@H](O)[C@H]2O[C@@H]2O[C@H](C(=O)O)[C@@H](O)[C@H](O)[C@H]2O)CC[C@]2(C)[C@H]3C(=O)C=C4[C@@H]5C[C@@](C)(C(=O)O)CC[C@]5(C)CC[C@@]4(C)[C@]3(C)CC[C@@H]12` [Glycyrrhizin], the Virucidal entry in test [5] is given as “+slight effect”.

Consider `NC(=O)c1ncn([C@@H]2O[C@H](CO)[C@@H](O)[C@H]2O)n1` [Ribavirin], for which the “concentration needed to inhibit local lesion development and to prevent infection” value in test [6] and in test [7] was “Approximately 1000 ppm” each time.

On to `C[C@H]1O[C@@H](O[C@H]2CC[C@@]3(C)[C@@H](CC[C@]4(C)[C@@H]3C=C[C@]35OC[C@@]6(CCC(C)(C)C[C@H]63)[C@H](O)C[C@]54C)[C@]2(C)CO)[C@H](O)[C@@H](O[C@@H]2O[C@H](CO)[C@@H](O)[C@H](O)[C@H]2O)[C@H]1O` [Saikosaponin-d], for which the “concentration that causes inactivation” value in test [8] and in test [9] was “greater than 5 µM” in each case.

As for Carbenoxolone/ cicloxolone, the Active in vivo entry in test [10] is given as “HSVlesions in humans”. For the same compound, the Virucidal result in test [5] was “+HSV”.

As to Hydroxy-protoprimulagenin, the Active in vivo entry in test [11] is on record as “HSV Keratitis in rabbits”. Moreover, the “Other viruses: Vaccinia” value in test [12] is recorded as “VSV Vaccinia adenovirus”. Further, in test [5], the Virucidal result is listed as “+HSV only”. In test [13], the “Other viruses: adenovirus” value is “VSV Vaccinia adenovirus”. The “Other viruses: VSV” value in test [14] is “VSV Vaccinia adenovirus”.

As for crossasteroside B, the inhibit plaque formation in test [15] is on record as 43%.

With crossasteroside D, the inhibit plaque formation in [15] was 27%.
